USRE40278E1, “Heterocyclic amines having central nervous system activity” (priority 1993, dated 2008)
pKi: −log10 of the molar value.

Tests used:
5-HT1DB-Clone = biological target: T1, 5-HT1DB-Clone (Homo sapiens, UniProt P28222); assay: receptor binding assay, 5-HT1DB clone (5HT ligand)
T1 construct: expressed in transfected cells
Procedure: (§1) Compounds of Example 4 (Formula I where R1 and R2 are propyl, Y is hydrogen and X is —OCH3) were evaluated in an receptor binding assay (5HT Ligand) for calculation of IC50 values and Ki (nM) values. Receptor binding assays are well known tests for evaluating compounds for activity as described in “Cloning and Pharmacological Characterization of a Novel Human […] Receptor Sub-Type”, Mol. Pharm., 42 439-44 (1992), herein incorporated by reference.

5-HT1DA-Clone = biological target: T2, 5-HT1DA-Clone (Homo sapiens, UniProt P28221); assay: receptor binding assay, 5-HT1DA clone (5HT ligand)
T2 construct: expressed in transfected cells
Procedure: as §1

5-HT1A-Clone = biological target: T3, 5-HT1A-Clone (Homo sapiens, UniProt P08908); assay: receptor binding assay, 5-HT1A clone (DPAT ligand)
T3 construct: expressed in transfected cells
T3 sequence (P08908 1-422): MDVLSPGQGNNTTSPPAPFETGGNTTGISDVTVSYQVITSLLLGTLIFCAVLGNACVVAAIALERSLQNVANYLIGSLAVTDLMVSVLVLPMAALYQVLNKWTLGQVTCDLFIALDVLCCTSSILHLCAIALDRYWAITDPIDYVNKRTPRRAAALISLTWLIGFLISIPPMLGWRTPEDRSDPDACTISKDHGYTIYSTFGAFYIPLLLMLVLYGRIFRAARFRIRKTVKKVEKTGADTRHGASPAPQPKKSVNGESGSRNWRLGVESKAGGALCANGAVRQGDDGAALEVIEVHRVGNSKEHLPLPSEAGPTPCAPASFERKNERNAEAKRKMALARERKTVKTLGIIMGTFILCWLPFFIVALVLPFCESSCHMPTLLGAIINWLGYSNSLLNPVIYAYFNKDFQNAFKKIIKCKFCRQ
Procedure: as §1

[1] = test system: aggressive behavior of isolated male CF-1 mice; assay: isolation-induced aggression assay (latency to attack an intruder mouse); assay type: in vivo; conditions: isolated male CF-1 mice dosed p.o., intruder introduced thirty minutes later, n=6
Procedure: Compounds of the subject invention were evaluated in an isolation-induced aggression assay to measure their ability to control or arrest aggressive behavior as measured against a saline “Control”. Male CF-1 mice (Charles River Labs) were housed singly in wire cage drawers for several weeks of isolation and aggression training. After this, the isolated mouse (weighing 30-50 g) initiated an “attack” whenever an intruder mouse was placed into his cage. Intruders were male CF-1 Charles River mice, about the same size as isolated mice and housed in groups of 12 per cage. For drug testing, the isolated mice were dosed orally (p.o.) with drug or 0.25% methylcellulose vehicle. Thirty minutes later, an intruder mouse was introduced and the latency to attack was recorded. Treatment groups (n=6), including a positive control, were tested by an observer blinded to the treatments, and there was an additional non-blinded vehicle group.

T1 sequence (P28222 whole entry): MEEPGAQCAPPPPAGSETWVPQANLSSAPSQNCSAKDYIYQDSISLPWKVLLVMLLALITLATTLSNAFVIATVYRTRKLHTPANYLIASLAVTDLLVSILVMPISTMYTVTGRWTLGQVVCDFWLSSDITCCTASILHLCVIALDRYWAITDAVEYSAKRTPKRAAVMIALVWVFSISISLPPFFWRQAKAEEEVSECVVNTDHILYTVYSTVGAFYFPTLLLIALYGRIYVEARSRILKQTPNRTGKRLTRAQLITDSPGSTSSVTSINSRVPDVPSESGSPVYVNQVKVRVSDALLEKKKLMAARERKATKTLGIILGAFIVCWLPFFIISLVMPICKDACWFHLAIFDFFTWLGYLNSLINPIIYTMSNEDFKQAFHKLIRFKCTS
T2 sequence (P28221 whole entry): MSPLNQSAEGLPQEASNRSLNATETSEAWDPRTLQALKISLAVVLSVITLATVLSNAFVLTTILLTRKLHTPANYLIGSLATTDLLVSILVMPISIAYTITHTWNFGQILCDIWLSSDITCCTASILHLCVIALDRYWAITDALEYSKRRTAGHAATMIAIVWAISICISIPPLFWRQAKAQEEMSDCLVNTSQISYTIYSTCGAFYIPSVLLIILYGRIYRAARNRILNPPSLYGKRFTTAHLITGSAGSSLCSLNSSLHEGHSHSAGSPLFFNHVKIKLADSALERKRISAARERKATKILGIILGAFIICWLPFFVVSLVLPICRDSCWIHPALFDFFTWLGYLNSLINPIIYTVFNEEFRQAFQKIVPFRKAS

Compound | pKi (5-HT1DB-Clone) | receptor selectivity (in words) (5-HT1DB-Clone; 5-HT1DB versus 5-HT1DA, conclusion from the Ki table) | pKi (5-HT1DA-Clone) | pKi (5-HT1A-Clone) | latency to attack [1] [s] | enantiomer that carries the activity (in words) (5-HT1A-Clone; comparison of R- and S-enantiomer, conclusion from the Ki table)
CCCN(CCC)C1Cc2cccc3c2n(c(=O)n3OC)C1 (racemic) [Ex. 4 Racemate] | 8.14 | selective for the 5HT1DB receptor | 7.82 |  |  | 
CCCN(CCC)[C@H]1Cc2cccc3c2n(c(=O)n3OC)C1 [Ex. 4 S-Enantiomer] |  |  |  | 6.04 |  | 
CN[C@@H]1Cc2cccc3c2n(c(=O)n3OC)C1 [Example 1, (R)-5-Methylamino-1-methoxy-5,6-dihydro-4H-imidazo[4,5,1-ij]quinolin-2(1H)-one] |  |  |  |  | 600 | 
CCCN(CCC)[C@@H]1Cc2cccc3c2n(c(=O)n3OC)C1 [Ex. 4 R-Enantiomer, (R)-5-Dipropylamino-1-methoxy-5,6-dihydro-4H-imidazo[4,5,1-ij]quinolin-2(1H)-one] | 7.24 |  | 7.42 | 7.01 |  | the activity resides in the R-enantiomer
